Columns and labels:
Assay type in all cases: functional, cell-based
[1] = test system: SW480; assay: Cytotoxicity against human SW480 after 48 hrs by MTT assay; settings: SW480, 48 h
[2] = test system: A549; assay: Cytotoxicity against human A549 after 48 hrs by MTT assay; settings: A549, 48 h
[3] = test system: MCF7; assay: Cytotoxicity against human MCF7 after 48 hrs by MTT assay; settings: MCF7, 48 h
[4] = test system: SMMC-7721; assay: Cytotoxicity against human SMMC7721 after 48 hrs by MTT assay; settings: SMMC-7721, 48 h
[5] = test system: HL-60; assay: Cytotoxicity against human HL60 after 48 hrs by MTT assay; settings: HL-60, 48 h

Question: How did the IC50 [1] turn out when `C/C=C1/CN2CCc3c4n(c5ccccc35)/C=C3/[C@H]5C[C@@H]6N(CC[C@@]67c6ccccc6N(/C=C\4[C@H]1CC2=O)[C@@H]37)C/C5=C/C` [(15S,19E,2'S,3'S,7'R,15'S,19'E)-GARDOVATINE] was run?
Answer: 16.1 µM

Question: And the IC50 [2]?
Answer: 14.2 µM

Question: And the IC50 [3]?
Answer: 13.9 µM

Question: And the IC50 [4]?
Answer: 10.5 µM

Question: What about the IC50 [5] of the same compound?
Answer: 9.8 µM

Question: Which results are given for `C/C=C1/CN2CC[C@]34c5ccccc5N5[C@H]3[C@H]([C@H]3O[C@]6([C@@H]7N3c3ccccc3[C@@]73CCN7C/C(=C/C)[C@@H]6C[C@H]73)[C@H]5OC)[C@H]1C[C@H]24` [DIVARINE]?
Answer: IC50 [1]: 1.6 µM; IC50 [2]: 3.2 µM; IC50 [3]: 3 µM; IC50 [4]: 3.2 µM; IC50 [5]: 1.2 µM
